In PMC7730513, “A Topical Formulation of Melatoninergic Compounds Exerts Strong Hypotensive and Neuroprotective Effects in a Rat Model of Hypertensive Glaucoma” (International Journal of Molecular Sciences, 2020):
Values joined by “and” are separate entries in the source; they are usually repeats but may differ in a detail not shown here. Equal entries are not always repeated. “Also recorded” adds a separate entry of the source. Where two headings read alike, the source gives them in different places.

Key:
MT1 melatonin receptor = settings: read-out: Affinity of MT1 melatonin receptor; cited from earlier work
MT2 melatonin receptor = settings: read-out: Affinity of MT2 melatonin receptor; cited from earlier work
[1] = Pharmacokinetics study: eye tissue distribution of melatonin/agomelatine eye drops by HPLC/MS/MS in healthy rats; settings: for concentration at 2 h: rat, topical, 40 µg
Description: (§5) Two hours after the last treatment, animals were euthanized with an overdose of pentobarbital and the eye globes removed. One eye of each rat was taken whole, while the fellow eyes were dissected, and retinas and vitreous humors were separately taken. Whole eyes were cut in small pieces and separately homogenized with an Ultra-turrax homogenizer for 3 min on ice at 4 °C in 0.25 mL of methanol, then subjected to 1 min of ultrasonication in a cold-water bath. The five retinas were pooled together and extracted as before in 0.1 mL of methanol. Each vitreous body was diluted with 0.05 mL of methanol and sonicated. All samples were finally centrifuged 10 min at 10,000× g rpm and the supernatants were saved frozen for further analysis. […] The operational MS parameters of the instrument were: gas temperature, 350 °C; gas flow, 5 L/min; nebulizer, 20 psi; capillary, 3500 V; collision energy, 15 V; dwell-time, 200 msec; fragmentor, 135 V.

[2] = brimonidine eye drops in monkeys; cited from earlier work
active caspase 3 = assay: Western blot of retinal homogenates, active caspase 3; assay type: in vivo, rat; settings: retina, MCE model, versus respective vehicle
Description: (§1) The model was originally developed in rabbits and then applied to rodents. It is based on the injection of 2% MCE in sterile saline in the anterior chamber of the eye. The MCE used in the present study (M0512; Sigma Aldrich, St. Louis, MO, USA) is pure and has a molecular weight of about 88,000 and, when dissolved in aqueous solution at 2% gives a solution with a viscosity ranging from 3500 to 5600 cps. Rats, anesthetized with an intraperitoneal injection of pentobarbital (30 mg/kg), were injected into the anterior chamber with 15 µL of MCE in both eyes using a 18G needle in agreement with published protocols. […] The eyes of each rat were evaluated for unintended adverse effects of intraocular injection -e.g., cataract, corneal opacity or edema that could impact electrophysiological parameters and/or tonometer accuracy. […]
(§2) After animal euthanization with an overdose of pentobarbital, retinas were isolated and stored at −80 °C. […] Protein concentration was measured using the Micro BCA Protein Assay (Thermo Fisher Scientific, Waltham, MA, USA). […] Blots were blocked for 1 h with 5% skim milk and incubated overnight at 4 °C with the primary antibodies listed in Supplementary Table S1 that are routinely used to detect the inflammatory and the apoptotic markers as determined in the present study. β-actin was used as loading control. […]

IL-10 = assay: Western blot of retinal homogenates, IL-10; assay type: in vivo, rat; settings: retina, MCE model, versus respective vehicle
Description: as §1, §2

IL-1β = assay: Western blot of retinal homogenates, IL-1β; assay type: in vivo, rat; settings: retina, MCE model, versus respective vehicle
Description: as §1, §2

[3] = tested on: MCE rat model of hypertensive glaucoma; assay: Photopic full-field ERG, photopic negative response (PhNR); assay type: in vivo; settings: two weeks after MCE; versus respective vehicle
Description: (§3) The model was originally developed in rabbits and then applied to rodents. It is based on the injection of 2% MCE in sterile saline in the anterior chamber of the eye. The MCE used in the present study (M0512; Sigma Aldrich, St. Louis, MO, USA) is pure and has a molecular weight of about 88,000 and, when dissolved in aqueous solution at 2% gives a solution with a viscosity ranging from 3500 to 5600 cps. Rats, anesthetized with an intraperitoneal injection of pentobarbital (30 mg/kg), were injected into the anterior chamber with 15 µL of MCE in both eyes using a 18G needle in agreement with published protocols. […] The eyes of each rat were evaluated for unintended adverse effects of intraocular injection -e.g., cataract, corneal opacity or edema that could impact electrophysiological parameters and/or tonometer accuracy.
(§4) Eye drops (10 µL) were administered to both eyes two times a day over two weeks after MCE injection. Eye drops were instilled at 10 a.m. and at 6 p.m.

IL-6 = assay: Western blot of retinal homogenates, IL-6; assay type: in vivo, rat; settings: retina, MCE model, versus respective vehicle
Description: as §1, §2

Iba1 = assay: Western blot of retinal homogenates, Iba1; assay type: in vivo, rat; settings: retina, MCE model, versus respective vehicle
Description: as §1, §2

IL-4 = assay: Western blot of retinal homogenates, IL-4; assay type: in vivo, rat; settings: retina, MCE model, versus respective vehicle
Description: as §1, §2

Brn3a-positive RGCs = assay: RGC density by Brn3a immunohistochemistry in retinal flat mounts; assay type: in vivo, rat; settings: for RGC loss spared: MCE reduced RGC density by about 29%; for RGC density (% of control), Central: central retina; for RGC density (% of control), Central / RGC density (% of control), Middle / RGC density (% of control), Peripheral: MCE + treatment, mean ± SEM, n = 6; for RGC density (% of control), Middle: middle retina; for RGC density (% of control), Peripheral: peripheral retina
Description: as §3, §4
After animal euthanization with an overdose of pentobarbital, six retinas from independent rats for each experimental group were explanted. Retinas were then fixed for 90 min at 4 °C in 4% paraformaldehyde in 0.1 M phosphate buffer (PB) and stored at 4 °C in 25% sucrose in 0.1 M PB. Retinal ganglion cells were labeled incubating the retinas for 24 h at 4 °C with a mouse monoclonal antibody against Brn3a (1:100 in PB containing 5% BSA and 2% TritonX-100; sc-8429; Santa Cruz Biotechnology, Santa Cruz, CA, USA). Retina whole mounts were then washed with PB and incubated overnight at 4 °C in an AlexaFluor555-conjugated secondary antibody (1:100; A-32727; Molecular Probes, Eugene, OR, USA). Finally, retinas were washed with PB, mounted on glass slides with the photoreceptor side facing down and viewed with a fluorescence microscope (Ni-E; Nikon-Europe, Amsterdam, The Netherlands). Images of the entire retina were acquired by a DS-Fi1c camera (Nikon-Europe) and Brn3a-positive cells were counted using the NIS-Elements software (Nikon-Europe). […] In total, 12 images were taken from each retina. The density of Brn3a-positive cells (number of cells per mm^2) was compared between the different experimental groups. Quantification was performed in a masked manner.

[4] = after administration of 0.1% eye drops; cited from earlier work
Bax/Bcl-2 = assay: Western blot of retinal homogenates, Bax/Bcl-2 ratio; assay type: in vivo, rat; settings: retina, MCE model, versus respective vehicle
Description: as §1, §2

TNF-α = assay: Western blot of retinal homogenates, TNF-α; assay type: in vivo, rat; settings: retina, MCE model, versus respective vehicle
Description: as §1, §2

[5] = tested on: MCE rat model of hypertensive glaucoma; assay: Pattern ERG (PERG); assay type: in vivo; settings: two weeks after MCE
Description: as §3, §4
PERG responses, mainly generated by RGC activity, can be useful for assessing RGC function in conditions such as glaucoma and ischemic optic neuropathy. PERG responses were evoked using an alternating pattern of black and white horizontal bars delivered on a stimulus display unit from a commercially available PERG system (SB700 Advanced, Nikon-Europe, Amsterdam, The Netherlands). Stimuli consisted in 0.05 cycles/deg black and white bars reversing at 1 Hz presented at 98% contrast. The pattern stimuli were administered through a light emitting diode display with a mean luminance of 50 cd/m^2 aligned at about 20 cm from the corneal surface. A total of 200 signals were averaged. Each animal was placed at the same fixed position in front of the monitor to prevent recording variability due to animal placement. PERG recordings were sequentially conducted in both eyes. The PERG response was evaluated by measuring the amplitude of the N35-P50 wave (from the trough of the negative peak N35, a small deflection near 35 ms after the stimulus, to the peak of the positive peak P50, a deflection near 50 ms after the stimulus) and the P50-N95 wave (from the peak of the positive peak P50 to the trough of the negative peak N95, a deflection near 95 ms after the stimulus). The implicit time was determined by measuring the time from the onset of the stimulus to the P50 and N95 peaks.

GFAP = assay: Western blot of retinal homogenates, GFAP; assay type: in vivo, rat; settings: retina, MCE model, versus respective vehicle
Description: as §1, §2

[6] = Sprague-Dawley, rat, in vivo, 2 h
Description: as §5

in vivo = settings: rat
Description: as §5

[7] = tested on: MCE rat model of hypertensive glaucoma; assay: IOP measurement by tonometry in the MCE model; assay type: in vivo; settings: after two weeks of eye drops twice a day; in respect to the respective vehicle (vehicle 1 saline for timolol, brimonidine; vehicle 2 nanomicellar for melatonin/agomelatine)
Description: as §3, §4

[8] = of 120 µg given in 3 administrations of 40 µg

Row | Compound | Ki (MT2 melatonin receptor) [nM] | Decrease of the levels of the active form of caspase 3 (active caspase 3) | Increase of IL-10 levels (IL-10) | Reduction of IL-1β levels (IL-1β) | PhNR amplitude [3] | Reduction of IL-6 levels (IL-6) | Reduction of Iba1 levels (Iba1) | Increase of IL-4 levels (IL-4) | RGC loss spared (Brn3a-positive RGCs) | RGC density (% of control), Central (Brn3a-positive RGCs) | RGC density (% of control), Middle (Brn3a-positive RGCs) | RGC density (% of control), Peripheral (Brn3a-positive RGCs) | Reduction of the Bax/Bcl-2 ratio (Bax/Bcl-2) | Reduction of TNF-α levels (TNF-α) | Amplitude of the N35-P50 and P50-N95 waves, effect versus vehicle [5] | MCE-induced increase in the implicit time of the P50 and N95 components [5] | Reduction of GFAP levels (GFAP) | other results
1 | COc1ccc2cccc(CCNC(C)=O)c2c1 [agomelatine] | 0.12 | – | – | – | – | – | – | – | – | – | – | – | – | – | – | – | – | Ki (MT1 melatonin receptor): 0.01 nM; concentration at 2 h ([1]; Sprague-Dawley, retina, Concentration in the retina (molar), converted from ng/mg): ~378 nM; concentration at 2 h ([1]; Sprague-Dawley, retina, Concentration, pool of retinas, pool of retinas of animals 1 to 5, 3 x 40 µg eye drops, 2 h after last instillation): 96 ng/g; concentration at 2 h ([1]; Sprague-Dawley, vitreous humor, Concentration, vitreous, individual animals 1-5, 3 x 40 µg eye drops, 2 h after last instillation): 71 ng/g; concentration at 2 h ([1]; Sprague-Dawley, vitreous humor, Concentration, vitreous, mean, mean of 5 animals, 3 x 40 µg eye drops, 2 h after last instillation): 80 ng/g; concentration at 2 h ([1]; Sprague-Dawley, whole eye, Concentration, whole eye, individual animals 1-5, 3 x 40 µg as 10 µL eye drops 2 h apart, sampled 2 h after last instillation): 10900 ng/g; concentration at 2 h ([1]; Sprague-Dawley, whole eye, Concentration, whole eye, mean, mean of 5 animals, 3 x 40 µg eye drops, 2 h after last instillation): 9940 ng/g; Content in the whole eye relative to melatonin ([1]; agomelatine 9.94 ng/mg vs melatonin 7.44 ng/mg): 1.33 times; Concentration, whole eye ([1]; individual animals 1-5, 3 x 40 µg as 10 µL eye drops 2 h apart, sampled 2 h after last instillation): 10.64 ng/mg and 11.35 ng/mg and 9.16 ng/mg and 7.67 ng/mg; Concentration, vitreous ([1]; individual animals 1-5, 3 x 40 µg eye drops, 2 h after last instillation): 0.073 ng/mg and 0.099 ng/mg and 0.077 ng/mg and 0.084 ng/mg; Concentration, vitreous, mean ([1]; mean of 5 animals, 3 x 40 µg eye drops, 2 h after last instillation): 0.081 ng/mg; Amount retained in the whole eye [1, 8]: 1.59 µg; Fraction of the 120 µg given retained in the whole eye [1, 8]: ~1.3%; concentration at 2 h ([1]; retina, Concentration in the retina (molar), converted from ng/mg): 378 nM; concentration at 2 h ([1]; vitreous humor, Concentration in the vitreous humor (molar), converted from ng/mg): 332 nM; Retina concentration relative to melatonin ([1]; retina): twenty-two times higher
2 | Brc1c(NC2=NCCN2)ccc2nccnc12 [brimonidine] | – | ~2.2 fold | did not affect | did not affect | almost restoring the PhNR amplitude to control levels | did not affect | not affecting | did not affect | spared almost completely; also recorded: almost completely prevented | 88 ± 3 % of control | 91 ± 6 % of control | 91 ± 3 % of control | ~9.7 fold | did not affect | partly prevented the reduction | prevented | about 1.6 fold | Concentration values after eye drops [2]: around 80 nM; Vitreous concentration [4]: 2 nM; Amplitude of the P50-N95 wave, lower than in controls ([5]; MCE alone about 55% reduced): ~25%; Amplitude of the N35-P50 wave, lower than in controls ([5]; MCE alone about 60% reduced): about 24%
3 | COc1ccc2[nH]cc(CCNC(C)=O)c2c1 [melatonin] | 0.38 | – | – | – | – | – | – | – | – | – | – | – | – | – | – | – | – | Fraction of the 120 µg given retained in the whole eye [6]: roughly 1%; concentration at 2 h (in vivo; Sprague-Dawley, Concentration in the retina (molar)): ~17 nM; concentration at 2 h (in vivo; Concentration in the retina (molar)): 17 nM; concentration at 2 h (in vivo; Concentration in the vitreous humor (molar)): 43 nM
4 | CC(C)(C)NC[C@H](O)COc1nsnc1N1CCOCC1 [timolol] | – | about 1.3 fold | did not affect | did not affect | did not differ | did not affect | did not affect | did not affect | about 11% | 78 ± 4 *^,§ % of control | 83 ± 3 *^,§ % of control | 81 ± 4 *^,§ % of control | about 1.6 fold | did not affect | did not differ | did not affect | did not affect | Reduction of the MCE-induced increase in IOP [7]: about 32%
